According to patent US20240383856A1 (Zedira GmbH, priority 2021, published 2024):

Experiments:
[1] = target: T1, recombinant human transglutaminase 2 (Homo sapiens, UniProt P21980); experiment: Transglutaminase assay (DCC-assay): incorporation of dansylcadaverine into dimethylcasein; format: biochemical; conditions: recombinant human TG2 10 nM; dansylcadaverine incorporation into dimethylcasein; read-out: IC50 TG2
T1 construct: purchased Zedira T022
T1 sequence (P21980 1-687): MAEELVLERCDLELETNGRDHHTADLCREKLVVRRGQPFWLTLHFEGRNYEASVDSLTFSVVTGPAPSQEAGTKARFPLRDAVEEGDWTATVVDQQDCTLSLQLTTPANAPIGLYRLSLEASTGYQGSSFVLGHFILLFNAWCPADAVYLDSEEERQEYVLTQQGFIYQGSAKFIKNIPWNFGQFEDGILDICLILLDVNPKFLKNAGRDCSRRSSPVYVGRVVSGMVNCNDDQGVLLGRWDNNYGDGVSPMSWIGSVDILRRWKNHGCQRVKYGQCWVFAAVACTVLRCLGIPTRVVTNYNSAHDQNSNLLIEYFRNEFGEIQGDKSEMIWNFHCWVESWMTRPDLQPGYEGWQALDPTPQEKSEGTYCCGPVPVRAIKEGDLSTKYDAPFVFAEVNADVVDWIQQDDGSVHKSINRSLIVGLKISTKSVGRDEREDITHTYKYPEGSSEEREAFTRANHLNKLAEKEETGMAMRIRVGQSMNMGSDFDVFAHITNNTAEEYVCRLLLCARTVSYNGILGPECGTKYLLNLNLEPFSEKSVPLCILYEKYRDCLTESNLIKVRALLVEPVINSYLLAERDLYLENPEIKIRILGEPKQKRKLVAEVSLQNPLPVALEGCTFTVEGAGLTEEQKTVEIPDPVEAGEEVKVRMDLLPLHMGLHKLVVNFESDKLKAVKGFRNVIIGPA
Protocol: To illustrate the advantage of branched alkyl moieties over aromatic moieties, we refer to reference compounds Ref. 2 (ZED1227, U.S. Pat. No. 9,434,763 B2) and Ref. 3 (A8, ZED1047). Inhibition data were determined using the classical fluorescent transamidation assay (dansylcadaverine incorporation into methylated casein, DCC-assay) as described [Buchold, C.; Hils, M.; Gerlach, U.; Weber, J.; Pelzer, C.; Heil, A.; Aeschlimann, D.; Pasternack, R. Features of ZED1227: The First-In-Class Tissue Transglutaminase Inhibitor Undergoing Clinical Evaluation for the Treatment of Celiac Disease. Cells 2022, 11, 1667. https://doi.org/10.3390/cells11101667]. Casein is one of the best known high molecular weight (24 kDa) protein substrates for transglutaminases. Please note, the IC50 value of Ref. 3 (A8) published in U.S. Pat. No. 9,434,763 B2 cannot be compared to the present data, relying on a fluorogenic isopeptidase assay.
To this extent, inhibition data were determined using the classical fluorescent transamidation assay (dansylcadaverine incorporation into methylated casein, DCC-assay) as described in Büchold et al. [Büchold, C.; Hils, M.; Gerlach, U.; Weber, J.; Pelzer, C.; Heil, A.; Aeschlimann, D.; Pasternack, R. Features of ZED1227: The First-In-Class Tissue Transglutaminase Inhibitor Undergoing Clinical Evaluation for the Treatment of Celiac Disease. Cells 2022, 11, 1667. https://doi.org/10.3390/cells11101667]. Casein is one of the best known high molecular weight (24 kDa) protein substrates for transglutaminases. Inhibition data of the inventive compounds was compared with inhibition of compounds disclosed in U.S. Pat. No. 9,434,763 B2, particularly, compound A8, which is denoted herein as Reference 3. It is noteworthy that the IC50 values of compounds A8 published in U.S. Pat. No. 9,434,763 B2 and E16 from U.S. Pat. No. 11,072,634 B2 cannot be compared to the present data, relying on a fluorogenic isopeptidase assay.
For the determination of potency of inhibitors against tissue transglutaminase, the incorporation of dansylcadaverine into dimethylcasein (Zedira product T036, Lorand et al., Anal Biochem, 1971, 44:221-31) was measured using recombinant human transglutaminase 2 (Zedira Product T022).
The tissue transglutaminase is diluted in buffer (50 mM Tris-HCl, 7.5 mM CaCl2), 150 mM NaCl, pH=7.4). The final concentration of TG2 in the assay is 10 nM.
A 10 mM inhibitor stock solution is prepared in DMSO, and from this a serial 1:2-fold dilution series is prepared also in DMSO. Each of the initial dilutions is subsequently diluted 1:50-fold with buffer (50 mM Tris-HCl, 7.5 mM CaCl2), 150 mM NaCl, pH=7.4) to yield the final working dilutions containing 2% (v/v) DMSO.
15 μl of inhibitor working dilution are added per well of a 96 well microtiter plate. As control, 15 μl of a 2% (v/v) DMSO solution prepared using the buffer mentioned above are added per well.
Immediately before starting the assay, 600 μl transglutaminase working solution are added to 11.4 ml assay buffer (50 mM Tris-HCl, 10 mM CaCl2), 10 mM glutathione, 2.5% glycerol, 16.7 µM dansylcadaverine, 4 uM N,N-dimethylcasein, 200 mM NaCl, pH=8.0). 285 μl of this reaction mix are added per well containing the inhibitor.
Increase in fluorescence is measured using λex=330 nm and λem=500 nm at 37° C. for 30 min. A slope of the increase in fluorescence between 20 and 30 min is calculated for determination of the IC50 value (inhibitor concentration at which 50% of the initial activity is blocked).
Analysis of enzymatic activity is performed by calculation of the slope of an increase in fluorescence intensity. IC50 values are calculated by plotting the enzymatic activity (as percentage from control containing 2% DMSO instead of inhibitor) against the inhibitor concentration. IC50 is defined as the inhibitor concentration blocking 50% of initial enzyme activity.

[2] = logD by shake flask method (octanol / PBS pH 7.4, HPLC); format: physicochemical; conditions: octanol / PBS pH 7.4, shake flask
Protocol: In order to classify the inventive compounds according to their lipophilicity, LogD values (distribution coefficient) were determined by means of the well-established shake flask method, measuring the partition of a compound between an octanol and phosphate-buffered saline (PBS, pH 7.4) by HPLC.
The LogD is pH dependent and is a “predictor” for in-vivo properties. LogD combines lipophilicity (intrinsic structural property of the molecule, logP) and ionizability (pKa). Compounds with a moderate lipophilicity (LogD values from 0 to 3) are usually advantaged for oral absorption, being in balance between solubility and permeability. However, sophisticated formulation of a compound might improve oral bioavailability for highly lipophilic compounds.

[3] = Caco-2 permeability assay (CacoReady kit); format: in vitro ADME; conditions: human, Caco-2, Caco-2 barrier, CacoReady kit; above 1×10^−6 cm/s classified as permeable
Protocol: Permeability coefficients (Papp values) were obtained from Caco-2 barrier studies predicting oral/intestinal bioavailability of the tested compounds. The assays were performed by using CacoReady™ ready-to-use kits from ReadyCell according to the manufacturers protocol.

Compound | IC50 [1] | logD [2] | Papp [3]
CNC(=O)C(=O)CC[C@H](NC(=O)c1sc(C(F)(F)F)nc1Br)C(=O)Nc1cccn(CC(=O)NC2C3CC4CC(C3)CC2C4)c1=O (stereo partly drawn) [II-16, (S)-2-(4-bromo-2-(trifluoromethyl)thiazole-5-carboxamido)-N1-(1-(2-(2-adamantylamino)-2-oxoethyl)-2-oxo-1,2-dihydropyridin-3-yl)-N6-methyl-5-oxohexanediamide] | < 40 nM | 1 to 3 | 1 to 10 ×10⁻⁶ cm/s
CNC(=O)C(=O)CC[C@H](NC(=O)c1sc(Cl)nc1Cl)C(=O)Nc1cccn(CC(=O)NC2C3CC4CC(C3)CC2C4)c1=O (stereo partly drawn) [II-17, (S)-2-(2,4-dichlorothiazole-5-carboxamido)-N1-(1-(2-(2-adamantylamino)-2-oxoethyl)-2-oxo-1,2-dihydropyridin-3-yl)-N6-methyl-5-oxohexanediamide] | 40 to 400 nM | 1 to 3 | 1 to 10 ×10⁻⁶ cm/s
CNC(=O)C(=O)CC[C@H](NC(=O)c1sc(OC)nc1C)C(=O)Nc1cccn(CC(=O)NC2C3CC4CC(C3)CC2C4)c1=O (stereo partly drawn) [II-18, (S)-N1-(1-(2-(2-adamantylamino)-2-oxoethyl)-2-oxo-1,2-dihydropyridin-3-yl)-2-(2-methoxy-4-methylthiazole-5-carboxamido)-N6-methyl-5-oxohexanediamide] | 40 to 400 nM | 1 to 3 | < 1 ×10⁻⁶ cm/s
CNC(=O)C(=O)CC[C@H](NC(=O)c1sc(-c2ccccc2)nc1C)C(=O)Nc1cccn(CC(=O)NC2C3CC4CC(C3)CC2C4)c1=O (stereo partly drawn) [II-19, (S)-N1-(1-(2-(2-adamantylamino)-2-oxoethyl)-2-oxo-1,2-dihydropyridin-3-yl)-N6-methyl-2-(4-methyl-2-phenylthiazole-5-carboxamido)-5-oxohexanediamide] | 40 to 400 nM | 3 to 5 | < 1 ×10⁻⁶ cm/s
CNC(=O)C(=O)CC[C@H](NC(=O)c1sc(C)nc1C)C(=O)Nc1cccn(CC(=O)NC2C3CC4CC(C3)CC2C4)c1=O (stereo partly drawn) [II-20, (S)-2-(2,4-dimethylthiazole-5-carboxamido)-N1-(1-(2-(2-adamantylamino)-2-oxoethyl)-2-oxo-1,2-dihydropyridin-3-yl)-N6-methyl-5-oxohexanediamide] | 400 to 2500 nM | 1 to 3 | 1 to 10 ×10⁻⁶ cm/s
CNC(=O)C(=O)CC[C@H](NC(=O)c1sc(Br)cc1C)C(=O)Nc1cccn(CC(=O)NC2C3CC4CC(C3)CC2C4)c1=O (stereo partly drawn) [II-21, (S)-2-(5-bromo-3-methylthiophene-2-carboxamido)-N1-(1-(2-(2-adamantylamino)-2-oxoethyl)-2-oxo-1,2-dihydropyridin-3-yl)-N6-methyl-5-oxohexanediamide] | < 40 nM | 3 to 5 | 1 to 10 ×10⁻⁶ cm/s
CNC(=O)C(=O)CC[C@H](NC(=O)c1sc(Br)cc1Br)C(=O)Nc1cccn(CC(=O)NC2C3CC4CC(C3)CC2C4)c1=O (stereo partly drawn) [II-22, (S)-2-(3,5-dibromothiophene-2-carboxamido)-N1-(1-(2-(2-adamantylamino)-2-oxoethyl)-2-oxo-1,2-dihydropyridin-3-yl)-N6-methyl-5-oxohexanediamide] | < 40 nM | 3 to 5 | 1 to 10 ×10⁻⁶ cm/s
CNC(=O)C(=O)CC[C@H](NC(=O)c1ccc(Br)s1)C(=O)Nc1cccn(CC(=O)NC2C3CC4CC(C3)CC2C4)c1=O (stereo partly drawn) [II-23, (S)-2-(5-bromothiophene-2-carboxamido)-N1-(1-(2-(2-adamantylamino)-2-oxoethyl)-2-oxo-1,2-dihydropyridin-3-yl)-N6-methyl-5-oxohexanediamide] | 40 to 400 nM | 3 to 5 | 1 to 10 ×10⁻⁶ cm/s
CNC(=O)C(=O)CC[C@H](NC(=O)c1ccc(Cl)s1)C(=O)Nc1cccn(CC(=O)NC2C3CC4CC(C3)CC2C4)c1=O (stereo partly drawn) [II-24, (S)-2-(5-chlorothiophene-2-carboxamido)-N1-(1-(2-(2-adamantylamino)-2-oxoethyl)-2-oxo-1,2-dihydropyridin-3-yl)-N6-methyl-5-oxohexanediamide] | 40 to 400 nM | 1 to 3 | 1 to 10 ×10⁻⁶ cm/s
CNC(=O)C(=O)CC[C@H](NC(=O)c1oc(Br)cc1C)C(=O)Nc1cccn(CC(=O)NC2C3CC4CC(C3)CC2C4)c1=O (stereo partly drawn) [II-25, (S)-2-(5-bromo-3-methylfuran-2-carboxamido)-N1-(1-(2-(2-adamantylamino)-2-oxoethyl)-2-oxo-1,2-dihydropyridin-3-yl)-N6-methyl-5-oxohexanediamide] | 40 to 400 nM | 1 to 3 | 1 to 10 ×10⁻⁶ cm/s
CNC(=O)C(=O)CC[C@H](NC(=O)c1ccc(Cl)o1)C(=O)Nc1cccn(CC(=O)NC2C3CC4CC(C3)CC2C4)c1=O (stereo partly drawn) [II-26, (S)-2-(5-chlorofuran-2-carboxamido)-N1-(1-(2-(2-adamantylamino)-2-oxoethyl)-2-oxo-1,2-dihydropyridin-3-yl)-N6-methyl-5-oxohexanediamide] | 40 to 400 nM | 1 to 3 | 1 to 10 ×10⁻⁶ cm/s
CNC(=O)C(=O)CC[C@H](NC(=O)c1csc(Cl)c1)C(=O)Nc1cccn(CC(=O)NC2C3CC4CC(C3)CC2C4)c1=O (stereo partly drawn) [II-27, (S)-2-(5-chlorothiophene-3-carboxamido)-N1-(1-(2-(2-adamantylamino)-2-oxoethyl)-2-oxo-1,2-dihydropyridin-3-yl)-N6-methyl-5-oxohexanediamide] | 40 to 400 nM | 1 to 3 | 1 to 10 ×10⁻⁶ cm/s
CNC(=O)C(=O)CC[C@H](NC(=O)c1cc(Br)sc1Br)C(=O)Nc1cccn(CC(=O)NC2C3CC4CC(C3)CC2C4)c1=O (stereo partly drawn) [II-29, (S)-2-(2,5-dibromothiophene-3-carboxamido)-N1-(1-(2-(2-adamantylamino)-2-oxoethyl)-2-oxo-1,2-dihydropyridin-3-yl)-N6-methyl-5-oxohexanediamide] | < 40 nM | 3 to 5 | 1 to 10 ×10⁻⁶ cm/s
